# According to patent US10202361B2, “Pyridazinones as herbicides” (E I DU PONT DE NEMOURS AND COMPANY, priority 2014, dated 2019):
# Where two headings read alike, the source gives them in different places.
# What was measured:
# Assay type in all cases: in vivo
# [1] = tested on: barnyardgrass (Echinochloa crus-galli); experiment: Test A pre-/postemergence greenhouse herbicide test; settings: Echinochloa crus-galli, 240 h, 0 to 100 scale (0 no effect, 100 complete control), approx. 10 d, read-out: Plant response rating, Barnyardgrass; for pest or weed control at 125 g/ha: 125 g ai/ha; for pest or weed control at 500 g/ha: 500 g ai/ha
# Summary of the method: (§1)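 Injury was scored visually on a 0–100 scale (100 = complete control) about 10 d after spraying, relative to untreated plants. Compounds were formulated in solvent plus surfactant and applied as soil spray preemergence or to 2–10 cm, one- to two-leaf seedlings postemergence.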
# [2] = tested on: corn (Zea mays); experiment: as above; settings: Zea mays, 240 h, 0 to 100 scale (0 no effect, 100 complete control), approx. 10 d; for Corn plant response rating (crop injury, 0 = no effect, 100 = complete kill) at 125 g/ha: 125 g ai/ha; for Corn plant response rating (crop injury, 0 = no effect, 100 = complete kill) at 500 g/ha: 500 g ai/ha
# Summary of the method: as §1
# [3] = tested on: crabgrass, Large (large crabgrass, Digitaria sanguinalis); experiment: as above; settings: Digitaria sanguinalis, 240 h, 0 to 100 scale (0 no effect, 100 complete control), approx. 10 d, read-out: Plant response rating, Crabgrass, Large; for pest or weed control at 125 g/ha: 125 g ai/ha; for pest or weed control at 500 g/ha: 500 g ai/ha
# Summary of the method: as §1
# [4] = tested on: foxtail, giant (giant foxtail, Setaria faberii); experiment: as above; settings: Setaria faberi, 240 h, 0 to 100 scale (0 no effect, 100 complete control), approx. 10 d, read-out: Plant response rating, Foxtail, Giant; for pest or weed control at 125 g/ha: 125 g ai/ha; for pest or weed control at 500 g/ha: 500 g ai/ha
# Summary of the method: as §1
# [5] = tested on: morningglory (Ipomoea spp.); experiment: as above; settings: Ipomoea, 240 h, 0 to 100 scale (0 no effect, 100 complete control), approx. 10 d, read-out: Plant response rating, Morningglory; for pest or weed control at 125 g/ha: 125 g ai/ha; for pest or weed control at 500 g/ha: 500 g ai/ha
# Summary of the method: as §1
# [6] = tested on: pigweed (Amaranthus retroflexus); experiment: as above; settings: Amaranthus retroflexus, 240 h, 0 to 100 scale (0 no effect, 100 complete control), approx. 10 d, read-out: Plant response rating, Pigweed; for pest or weed control at 125 g/ha: 125 g ai/ha; for pest or weed control at 500 g/ha: 500 g ai/ha
# Summary of the method: as §1
# [7] = tested on: velvetleaf (Abutilon theophrasti); experiment: as above; settings: Abutilon theophrasti, 240 h, 0 to 100 scale (0 no effect, 100 complete control), approx. 10 d, read-out: Plant response rating, Velvetleaf; for pest or weed control at 125 g/ha: 125 g ai/ha; for pest or weed control at 500 g/ha: 500 g ai/ha
# Summary of the method: as §1
# [8] = tested on: wheat (Triticum aestivum); experiment: as above; settings: Triticum aestivum, 240 h, 0 to 100 scale (0 no effect, 100 complete control), approx. 10 d, read-out: Plant response rating, Wheat; for plant injury at 125 g/ha: 125 g ai/ha; for plant injury at 500 g/ha: 500 g ai/ha
# Summary of the method: as §1
# [9] = tested on: barnyardgrass (Echinochloa crus-galli); experiment: Test B flooded paddy test; settings: Echinochloa crus-galli, 312 h, Flood, scale of 0 to 100, 0 is no effect, 100 is complete control, 13 to 15 d, read-out: Plant response rating, Barnyardgrass
# Summary of the method: (§2)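 Visual ratings, 0 meaning no effect and 100 complete control, were made relative to untreated controls 13–15 d after treatment in a greenhouse. Treatment was by addition to paddy water 3 cm above the soil, maintained for the test, on 2-leaf-stage plants.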
# [10] = tested on: ducksalad (Heteranthera limosa); experiment: Test B flooded paddy test; settings: Heteranthera limosa, 312 h, Flood, scale of 0 to 100, 0 is no effect, 100 is complete control, 13 to 15 d, read-out: Plant response rating, Ducksalad
# Summary of the method: as §2
# [11] = tested on: rice (Oryza sativa); experiment: Test B flooded paddy test; settings: Oryza sativa, 312 h, Flood, scale of 0 to 100, 0 is no effect, 100 is complete control, 13 to 15 d, read-out: Plant response rating, Rice
# Summary of the method: as §2
# [12] = tested on: sedge, umbrella (small-flower umbrella sedge, Cyperus difformis); experiment: Test B flooded paddy test; settings: Cyperus difformis, 312 h, Flood, scale of 0 to 100, 0 is no effect, 100 is complete control, 13 to 15 d, read-out: Plant response rating, Sedge, Umbrella
# Summary of the method: as §2
structure (smiles),measurement,setting,value
"CCOc1cc(=O)n(-c2ccc(F)cc2)nc1Cc1ccnc(C(F)(F)F)c1 [Compound 25, 5-ethoxy-2-(4-fluorophenyl)-6-[[2-(trifluoromethyl)-4-pyridinyl]methyl]-3 (2H)-pyridazinone]",pest or weed control at 125 g/ha,"[1]; post-emergence, Postemergence",80%
same,pest or weed control at 500 g/ha,"[1]; post-emergence, Postemergence",90%
same,pest or weed control at 125 g/ha,"[1]; pre-emergence, Preemergence",90%
same,pest or weed control at 500 g/ha,"[1]; pre-emergence, Preemergence",100%
same,"Corn plant response rating (crop injury, 0 = no effect, 100 = complete kill) at 125 g/ha","[2]; post-emergence, Postemergence",70%
same,"Corn plant response rating (crop injury, 0 = no effect, 100 = complete kill) at 500 g/ha","[2]; post-emergence, Postemergence",80%
same,"Corn plant response rating (crop injury, 0 = no effect, 100 = complete kill) at 125 g/ha","[2]; pre-emergence, Preemergence",50%
same,"Corn plant response rating (crop injury, 0 = no effect, 100 = complete kill) at 500 g/ha","[2]; pre-emergence, Preemergence",50%
same,pest or weed control at 125 g/ha,"[3]; post-emergence, Postemergence",80%
same,pest or weed control at 500 g/ha,"[3]; post-emergence, Postemergence",90%
same,pest or weed control at 125 g/ha,"[3]; pre-emergence, Preemergence",100%
same,pest or weed control at 500 g/ha,"[3]; pre-emergence, Preemergence",100%
same,pest or weed control at 125 g/ha,"[4]; post-emergence, Postemergence",70%
same,pest or weed control at 500 g/ha,"[4]; post-emergence, Postemergence",90%
same,pest or weed control at 125 g/ha,"[4]; pre-emergence, Preemergence",100%
same,pest or weed control at 500 g/ha,"[4]; pre-emergence, Preemergence",100%
same,pest or weed control at 125 g/ha,"[5]; post-emergence, Postemergence",40%
same,pest or weed control at 500 g/ha,"[5]; post-emergence, Postemergence",90%
same,pest or weed control at 125 g/ha,"[5]; pre-emergence, Preemergence",30%
same,pest or weed control at 500 g/ha,"[5]; pre-emergence, Preemergence",90%
same,pest or weed control at 125 g/ha,"[6]; post-emergence, Postemergence",100%
same,pest or weed control at 500 g/ha,"[6]; post-emergence, Postemergence",100%
same,pest or weed control at 125 g/ha,"[6]; pre-emergence, Preemergence",100%
same,pest or weed control at 500 g/ha,"[6]; pre-emergence, Preemergence",100%
same,pest or weed control at 125 g/ha,"[7]; post-emergence, Postemergence",60%
same,pest or weed control at 500 g/ha,"[7]; post-emergence, Postemergence",100%
same,pest or weed control at 125 g/ha,"[7]; pre-emergence, Preemergence",40%
same,pest or weed control at 500 g/ha,"[7]; pre-emergence, Preemergence",100%
same,plant injury at 125 g/ha,"[8]; post-emergence, Postemergence",60%
same,plant injury at 500 g/ha,"[8]; post-emergence, Postemergence",70%
same,plant injury at 125 g/ha,"[8]; pre-emergence, Preemergence",30%
same,plant injury at 500 g/ha,"[8]; pre-emergence, Preemergence",60%
same,pest or weed control at 125 g/ha,[9]; 125 g ai/ha,0%
same,pest or weed control at 125 g/ha,[10]; 125 g ai/ha,0%
same,plant injury at 125 g/ha,[11]; 125 g ai/ha,0%
same,pest or weed control at 125 g/ha,[12]; 125 g ai/ha,75%
"Cc1cc(=O)n(-c2ccc(F)cc2)nc1Oc1ccnc(C(F)(F)F)c1 [Compound 14, 2-(4-fluorophenyl)-5-methyl-6-[[2-(trifluoromethyl)-4-pyridinyl]oxy]-3 (2H)-pyridazinone]",pest or weed control at 125 g/ha,"[1]; post-emergence, Postemergence",80%
same,pest or weed control at 500 g/ha,"[1]; post-emergence, Postemergence",90%
same,pest or weed control at 125 g/ha,"[1]; pre-emergence, Preemergence",70%
same,pest or weed control at 500 g/ha,"[1]; pre-emergence, Preemergence",100%
same,"Corn plant response rating (crop injury, 0 = no effect, 100 = complete kill) at 125 g/ha","[2]; post-emergence, Postemergence",50%
same,"Corn plant response rating (crop injury, 0 = no effect, 100 = complete kill) at 500 g/ha","[2]; post-emergence, Postemergence",70%
same,"Corn plant response rating (crop injury, 0 = no effect, 100 = complete kill) at 125 g/ha","[2]; pre-emergence, Preemergence",0%
same,"Corn plant response rating (crop injury, 0 = no effect, 100 = complete kill) at 500 g/ha","[2]; pre-emergence, Preemergence",50%
same,pest or weed control at 125 g/ha,"[3]; post-emergence, Postemergence",90%
same,pest or weed control at 500 g/ha,"[3]; post-emergence, Postemergence",90%
same,pest or weed control at 125 g/ha,"[3]; pre-emergence, Preemergence",90%
same,pest or weed control at 500 g/ha,"[3]; pre-emergence, Preemergence",90%
same,pest or weed control at 125 g/ha,"[4]; post-emergence, Postemergence",90%
same,pest or weed control at 500 g/ha,"[4]; post-emergence, Postemergence",90%
same,pest or weed control at 125 g/ha,"[4]; pre-emergence, Preemergence",90%
same,pest or weed control at 500 g/ha,"[4]; pre-emergence, Preemergence",90%
same,pest or weed control at 125 g/ha,"[5]; post-emergence, Postemergence",90%
same,pest or weed control at 500 g/ha,"[5]; post-emergence, Postemergence",100%
same,pest or weed control at 125 g/ha,"[5]; pre-emergence, Preemergence",80%
same,pest or weed control at 500 g/ha,"[5]; pre-emergence, Preemergence",100%
same,pest or weed control at 125 g/ha,"[6]; post-emergence, Postemergence",100%
same,pest or weed control at 500 g/ha,"[6]; post-emergence, Postemergence",100%
same,pest or weed control at 125 g/ha,"[6]; pre-emergence, Preemergence",100%
same,pest or weed control at 500 g/ha,"[6]; pre-emergence, Preemergence",100%
same,pest or weed control at 125 g/ha,"[7]; post-emergence, Postemergence",80%
same,pest or weed control at 500 g/ha,"[7]; post-emergence, Postemergence",90%
same,pest or weed control at 125 g/ha,"[7]; pre-emergence, Preemergence",30%
same,pest or weed control at 500 g/ha,"[7]; pre-emergence, Preemergence",100%
same,plant injury at 125 g/ha,"[8]; post-emergence, Postemergence",40%
same,plant injury at 500 g/ha,"[8]; post-emergence, Postemergence",70%
same,plant injury at 125 g/ha,"[8]; pre-emergence, Preemergence",10%
same,plant injury at 500 g/ha,"[8]; pre-emergence, Preemergence",60%
same,pest or weed control at 250 g/ha,[9]; 250 g ai/ha,40%
same,pest or weed control at 250 g/ha,[10]; 250 g ai/ha,75%
same,plant injury at 250 g/ha,[11]; 250 g ai/ha,30%
same,pest or weed control at 250 g/ha,[12]; 250 g ai/ha,75%
